Assay results reported in ChEMBL document CHEMBL3259577, “Antagonists of the kappa opioid receptor” (Bioorg Med Chem Lett, 2014).

Experiments:
[1] = organism: Cavia porcellus; experiment: Antagonist activity at delta opioid receptor in guinea pig caudate assessed as inhibition of SNC-80-stimulated [35S]-GTP[gammaS] binding
[2] = target: T1, Delta-type opioid receptor (Homo sapiens, UniProt P41143); experiment: Inhibition of delta opioid receptor (unknown origin) using SNC-80 by high content imaging beta-arrestin translocation assay
T1 sequence (P41143 whole entry): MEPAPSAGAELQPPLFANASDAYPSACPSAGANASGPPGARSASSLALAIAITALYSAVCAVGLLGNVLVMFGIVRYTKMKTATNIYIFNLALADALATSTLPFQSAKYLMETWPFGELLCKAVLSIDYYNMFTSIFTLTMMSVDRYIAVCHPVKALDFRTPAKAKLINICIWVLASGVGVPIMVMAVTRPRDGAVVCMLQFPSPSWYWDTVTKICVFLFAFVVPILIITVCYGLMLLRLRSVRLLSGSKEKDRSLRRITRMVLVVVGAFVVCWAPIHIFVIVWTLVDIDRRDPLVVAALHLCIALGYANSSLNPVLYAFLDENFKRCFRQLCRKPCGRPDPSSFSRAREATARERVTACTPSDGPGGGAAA

[3] = target: T2, Mu-type opioid receptor (Homo sapiens, UniProt P35372); experiment: Inhibition of mu opioid receptor (unknown origin) using DAMGO by high content imaging beta-arrestin translocation assay
T2 sequence (P35372 whole entry): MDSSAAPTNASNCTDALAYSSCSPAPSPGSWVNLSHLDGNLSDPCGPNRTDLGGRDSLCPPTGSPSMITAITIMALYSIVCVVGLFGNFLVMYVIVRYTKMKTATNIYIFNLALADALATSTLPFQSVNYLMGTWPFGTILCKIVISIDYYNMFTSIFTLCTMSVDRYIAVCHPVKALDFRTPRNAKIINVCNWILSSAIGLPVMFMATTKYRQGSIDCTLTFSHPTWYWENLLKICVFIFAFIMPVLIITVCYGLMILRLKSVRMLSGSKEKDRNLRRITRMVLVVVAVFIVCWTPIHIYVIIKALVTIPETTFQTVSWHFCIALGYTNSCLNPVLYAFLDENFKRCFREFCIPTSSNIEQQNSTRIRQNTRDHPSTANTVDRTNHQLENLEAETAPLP

[4] = target: Histamine H1 receptor (Homo sapiens, UniProt P35367); experiment: Binding affinity to histamine H1 receptor (unknown origin)
Chain of Histamine H1 receptor (P35367 whole entry): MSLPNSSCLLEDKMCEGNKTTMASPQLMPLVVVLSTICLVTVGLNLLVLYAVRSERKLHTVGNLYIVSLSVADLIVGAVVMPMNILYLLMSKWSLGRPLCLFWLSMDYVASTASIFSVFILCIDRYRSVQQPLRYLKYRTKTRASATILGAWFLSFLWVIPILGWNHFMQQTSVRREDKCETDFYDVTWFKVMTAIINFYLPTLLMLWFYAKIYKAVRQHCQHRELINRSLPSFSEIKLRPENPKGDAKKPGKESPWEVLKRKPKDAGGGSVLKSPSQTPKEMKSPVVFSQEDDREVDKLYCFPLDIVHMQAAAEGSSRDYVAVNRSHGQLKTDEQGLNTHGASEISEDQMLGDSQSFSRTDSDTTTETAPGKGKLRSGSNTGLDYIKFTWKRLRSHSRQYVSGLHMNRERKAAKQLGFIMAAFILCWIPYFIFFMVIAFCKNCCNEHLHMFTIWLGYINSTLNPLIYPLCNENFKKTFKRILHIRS

[5] = target: Sodium-dependent noradrenaline transporter (Homo sapiens, UniProt P23975); experiment: Binding affinity to NET (unknown origin)
Chain of Sodium-dependent noradrenaline transporter (P23975 whole entry): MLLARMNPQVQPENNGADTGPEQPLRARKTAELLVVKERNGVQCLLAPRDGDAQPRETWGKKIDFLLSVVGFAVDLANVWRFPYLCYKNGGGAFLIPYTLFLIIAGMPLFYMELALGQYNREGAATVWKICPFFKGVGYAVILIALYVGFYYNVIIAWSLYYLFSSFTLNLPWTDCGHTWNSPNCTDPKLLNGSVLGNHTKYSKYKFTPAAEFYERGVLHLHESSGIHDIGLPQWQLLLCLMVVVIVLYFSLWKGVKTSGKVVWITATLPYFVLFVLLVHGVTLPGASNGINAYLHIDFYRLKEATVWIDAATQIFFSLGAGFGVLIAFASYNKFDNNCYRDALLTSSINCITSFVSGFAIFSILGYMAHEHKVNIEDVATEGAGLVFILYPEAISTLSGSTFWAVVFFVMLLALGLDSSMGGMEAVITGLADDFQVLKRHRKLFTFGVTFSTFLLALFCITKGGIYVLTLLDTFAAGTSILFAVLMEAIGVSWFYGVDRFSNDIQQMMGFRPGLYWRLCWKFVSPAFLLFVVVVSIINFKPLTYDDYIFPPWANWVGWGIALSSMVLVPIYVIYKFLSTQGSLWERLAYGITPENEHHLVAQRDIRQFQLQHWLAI

[6] = target: D(3) dopamine receptor (Homo sapiens, UniProt P35462); experiment: Binding affinity to dopamine D3 receptor (unknown origin)
Chain of D(3) dopamine receptor (P35462 whole entry): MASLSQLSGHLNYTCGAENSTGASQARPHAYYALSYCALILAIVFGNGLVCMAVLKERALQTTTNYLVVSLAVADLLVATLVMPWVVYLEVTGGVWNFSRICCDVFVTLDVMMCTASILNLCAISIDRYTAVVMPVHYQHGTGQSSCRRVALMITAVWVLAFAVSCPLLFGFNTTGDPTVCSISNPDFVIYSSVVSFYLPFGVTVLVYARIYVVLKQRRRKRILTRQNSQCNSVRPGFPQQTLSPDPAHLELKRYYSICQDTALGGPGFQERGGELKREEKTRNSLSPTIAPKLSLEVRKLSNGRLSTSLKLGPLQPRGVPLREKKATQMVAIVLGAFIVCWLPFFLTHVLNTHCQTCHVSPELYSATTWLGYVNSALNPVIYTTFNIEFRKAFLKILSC

[7] = Drug metabolism in mouse liver microsomes assessed as compound remaining after 1 hr; format: ADME; settings: read-out: Drug metabolism
[8] = target: T3, Kappa-type opioid receptor (Homo sapiens, UniProt P41145); experiment: Displacement of [3H]diprenorphine from kappa opioid receptor (unknown origin) expressed in CHO cells membranes; format: cell membranes
T3 sequence (P41145 whole entry): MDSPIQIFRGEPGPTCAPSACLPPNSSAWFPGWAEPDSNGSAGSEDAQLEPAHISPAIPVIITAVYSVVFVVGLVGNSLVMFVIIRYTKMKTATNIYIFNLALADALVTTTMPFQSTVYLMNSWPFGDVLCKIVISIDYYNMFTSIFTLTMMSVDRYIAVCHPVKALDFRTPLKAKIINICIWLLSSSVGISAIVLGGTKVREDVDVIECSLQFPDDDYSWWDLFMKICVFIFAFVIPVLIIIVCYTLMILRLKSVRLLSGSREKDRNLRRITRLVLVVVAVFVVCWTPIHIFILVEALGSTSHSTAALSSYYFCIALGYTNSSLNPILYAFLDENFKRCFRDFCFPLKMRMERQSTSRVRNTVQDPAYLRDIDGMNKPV

[9] = target: T2, Mu-type opioid receptor; experiment: Displacement of [3H]diprenorphine from mu opioid receptor (unknown origin) expressed in CHO cells membranes; format: cell membranes
[10] = target: T1, Delta-type opioid receptor; experiment: Displacement of [3H]diprenorphine from delta opioid receptor (unknown origin) expressed in CHO cells membranes; format: cell membranes
[11] = target: Kappa-type opioid receptor (Cavia porcellus, UniProt P41144); experiment: Antagonist activity at kappa opioid receptor in guinea pig ileum assessed as inhibition of U50488-stimulated [35S]-GTP[gammaS] binding; format: functional, tissue-based; settings: read-out: pA2 (converted)
Chain of Kappa-type opioid receptor (Cavia porcellus, UniProt P41144) (P41144 whole entry): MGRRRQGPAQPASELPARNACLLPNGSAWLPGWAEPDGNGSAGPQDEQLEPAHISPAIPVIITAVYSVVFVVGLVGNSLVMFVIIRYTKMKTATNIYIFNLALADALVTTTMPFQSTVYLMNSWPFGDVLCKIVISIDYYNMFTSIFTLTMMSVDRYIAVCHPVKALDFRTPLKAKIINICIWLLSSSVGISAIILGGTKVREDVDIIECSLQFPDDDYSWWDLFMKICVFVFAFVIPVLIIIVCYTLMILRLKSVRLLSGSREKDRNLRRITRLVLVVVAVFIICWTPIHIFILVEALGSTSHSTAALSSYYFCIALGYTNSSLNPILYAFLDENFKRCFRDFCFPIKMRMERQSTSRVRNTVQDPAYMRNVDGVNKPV

[12] = target: Mu-type opioid receptor (Cavia porcellus, UniProt P97266); experiment: Antagonist activity at mu opioid receptor in guinea pig ileum assessed as inhibition of DAMGO-stimulated [35S]-GTP[gammaS] binding; format: functional, tissue-based; settings: read-out: pA2 (converted)
Chain of Mu-type opioid receptor (Cavia porcellus, UniProt P97266) (P97266 whole entry): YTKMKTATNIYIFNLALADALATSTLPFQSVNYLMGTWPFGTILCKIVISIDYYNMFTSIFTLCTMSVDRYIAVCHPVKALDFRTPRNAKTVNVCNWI

[13] = target: T3, Kappa-type opioid receptor; experiment: Inhibition of kappa opioid receptor (unknown origin) using dynorphin A by DiscoveryRx b-arrestin PathHunter assay
[14] = target: T3, Kappa-type opioid receptor; experiment: Inhibition of kappa opioid receptor (unknown origin) using dynorphin A by high content imaging beta-arrestin translocation assay
[15] = AUC in rat at 1 mg/kg, iv; format: ADME, organism-based; set-up: dose 1 mg/kg, route intravenous; settings: plasma
[16] = Cmax in rat at 1 mg/kg, iv; format: ADME, organism-based; set-up: dose 1 mg/kg, route intravenous; settings: in vivo
[17] = Tmax in rat at 1 mg/kg, iv; format: ADME, organism-based; set-up: dose 1 mg/kg, route intravenous; settings: in vivo
[18] = Half life in rat at 1 mg/kg, iv; format: ADME, organism-based; set-up: dose 1 mg/kg, route intravenous; settings: in vivo
[19] = Clearance in rat at 1 mg/kg, iv; format: ADME, organism-based; set-up: dose 1 mg/kg, route intravenous; settings: in vivo
[20] = AUC in rat at 10 mg/kg, po; format: ADME, organism-based; set-up: dose 10 mg/kg, route oral; settings: plasma
[21] = Cmax in rat at 10 mg/kg, po; format: ADME, organism-based; set-up: dose 10 mg/kg, route oral; settings: in vivo
[22] = Tmax in rat at 10 mg/kg, po; format: ADME, organism-based; set-up: dose 10 mg/kg, route oral; settings: in vivo
[23] = Half life in rat at 10 mg/kg, po; format: ADME, organism-based; set-up: dose 10 mg/kg, route oral; settings: in vivo
[24] = Oral bioavailability in rat at 10 mg/kg; format: ADME, organism-based; settings: in vivo
[25] = test system: Rattus norvegicus; experiment: Analgesic activity in po dosed rat assessed as inhibition of formalin response; format: functional
[26] = organism: Homo sapiens; experiment: Selectivity ratio for OPRK (unknown origin) to OPRM (unknown origin)
[27] = target: Mu-type opioid receptor (Cavia porcellus) (UniProt P97266); experiment: Antagonist activity at mu opioid receptor in guinea pig caudate assessed as inhibition of DAMGO-stimulated [35S]-GTP[gammaS] binding; format: functional
Chain of Mu-type opioid receptor (Cavia porcellus) (P97266 whole entry): as above

[28] = target: Kappa-type opioid receptor (Cavia porcellus) (UniProt P41144)
Chain of Kappa-type opioid receptor (Cavia porcellus) (P41144 whole entry): as the sequence (P41144 whole entry) above

[29] = target: Kappa-type opioid receptor (Rattus norvegicus) (UniProt P34975); experiment: Displacement of [3H]CI977 from rat forebrain OPRK
Chain of Kappa-type opioid receptor (Rattus norvegicus) (P34975 whole entry): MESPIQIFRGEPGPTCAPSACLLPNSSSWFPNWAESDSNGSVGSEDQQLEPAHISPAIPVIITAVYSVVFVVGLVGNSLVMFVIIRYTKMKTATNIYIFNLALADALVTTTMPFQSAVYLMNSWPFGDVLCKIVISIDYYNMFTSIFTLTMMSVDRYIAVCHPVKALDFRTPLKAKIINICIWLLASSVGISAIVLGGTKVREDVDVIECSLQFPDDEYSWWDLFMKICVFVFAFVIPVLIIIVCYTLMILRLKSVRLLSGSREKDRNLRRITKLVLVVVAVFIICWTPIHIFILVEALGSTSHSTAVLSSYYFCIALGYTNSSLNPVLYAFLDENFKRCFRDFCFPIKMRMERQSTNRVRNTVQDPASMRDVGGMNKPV

[30] = target: Mu-type opioid receptor (Rattus norvegicus) (UniProt P33535); experiment: Displacement of [3H]DAMGO from rat forebrain OPRM
Chain of Mu-type opioid receptor (Rattus norvegicus) (P33535 whole entry): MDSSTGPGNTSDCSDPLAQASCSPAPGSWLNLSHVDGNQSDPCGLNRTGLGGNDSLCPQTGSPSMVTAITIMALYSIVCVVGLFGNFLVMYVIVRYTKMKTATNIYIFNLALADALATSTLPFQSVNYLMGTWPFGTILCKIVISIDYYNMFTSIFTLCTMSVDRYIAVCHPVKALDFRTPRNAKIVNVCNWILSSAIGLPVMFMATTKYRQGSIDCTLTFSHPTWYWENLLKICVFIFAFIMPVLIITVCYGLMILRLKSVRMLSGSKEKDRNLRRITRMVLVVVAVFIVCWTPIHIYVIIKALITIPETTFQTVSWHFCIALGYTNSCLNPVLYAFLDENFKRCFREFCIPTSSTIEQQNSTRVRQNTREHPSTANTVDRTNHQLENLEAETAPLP

[31] = target: Kappa-type opioid receptor (Rattus norvegicus) (UniProt P34975); experiment: Displacement of [3H]CI977 from rat forebrain OPRK assessed as maximal binding after 30 mins
[32] = test system: Rattus norvegicus; experiment: Reduction in spiradoline-induced sc dosed rat plasma prolactin levels; format: functional; settings: read-out: ID50 (the source's name)

CC(C)[C@@H](CN1CC[C@@](C)(c2cccc(O)c2)[C@@H](C)C1)NC(=O)[C@H]1Cc2ccc(O)cc2CN1C
Ke [1]: > 300 nM

CC(=O)N1Cc2cc(O)ccc2C[C@@H]1C(=O)N[C@H](CN1CC[C@@](C)(c2cccc(O)c2)[C@@H](C)C1)C(C)C
Ke [1]: > 300 nM

COc1ccc(N2CCN(CCCNC(=O)Cn3c(=O)c4cccn4c4cc(Br)cnc43)CC2)cc1
IC50 [2]: > 32000 nM

COc1ccc(N2CCN(CCCNC(=O)Cn3c(=O)c4cccn4c4c(C)ccnc43)CC2)cc1
IC50 [3]: > 32000 nM | IC50 [2]: > 32000 nM | Ki [4]: < 1000 nM | Ki [5]: < 1000 nM | Ki [6]: < 1000 nM | remaining at 1 h [7]: 7.34%

CCOC(=O)C(CN1CC[C@@](C)(c2cccc(O)c2)[C@@H](C)C1)OC(=O)[C@H]1Cc2ccc(O)cc2CN1 (some centres undefined)
Ki [8]: 1.72 nM | Ki [9]: 26.5 nM | Ki [10]: 1060 nM | Kb [11]: 2.4 nM | Kb [12]: < 5010 nM

COc1ccc(N2CCN(CCCNC(=O)Cn3c(=O)c4cccn4c4cccnc43)CC2)cc1
IC50 [3]: > 32000 nM | IC50 [13]: 1950 nM | IC50 [14]: 1300 nM | IC50 [2]: > 32000 nM

COc1ccc(N2CCN(CCCNC(=O)Cn3c(=O)c4cccn4c4c(C)ccnc43)CC2)c(OC)c1
IC50 [13]: 190 nM | IC50 [14]: 4 nM | IC50 [2]: > 32000 nM

Cc1ccnc2c1n1cccc1c(=O)n2CC(=O)NCCCN1CCN(c2ccc(Cl)cc2)CC1
IC50 [3]: > 32000 nM | IC50 [13]: 690 nM | IC50 [2]: > 32000 nM

CC(C)[C@@H](CN1CC[C@@](C)(c2cccc(O)c2)[C@@H](C)C1)NC(=O)[C@@H]1Cc2ccc(O)cc2CN1
Ke [1]: 327 nM

C[C@H]1CN(CCOC(=O)[C@H]2Cc3ccc(O)cc3CN2)CC[C@@]1(C)c1cccc(O)c1
Ki [8]: 159 nM | Ki [9]: 186 nM | Ki [10]: 475 nM | Kb [11]: 135 nM | Kb [12]: 97.7 nM

Cc1cc(C)cc([C@@H]2CCCN2Cc2ccc(Oc3ccc(C(N)=O)cc3F)cc2)c1 [ATICAPRANT]
AUC [15]: 186 ng·h/mL | Cmax [16]: 334 ng/mL | Tmax [17]: 0 h | half-life [18]: 1.8 h | clearance [19]: 89.3 mL/min/kg | AUC [20]: 466 ng·h/mL | Cmax [21]: 95 ng/mL | Tmax [22]: 2 h | half-life [23]: 3.8 h | bioavailability [24]: 25.4% | ED50 [25]: 0.4 mg/kg | Ratio [26]: 43

CC(C)CC(=O)N1Cc2cc(O)ccc2C[C@@H]1C(=O)N[C@H](CN1CC[C@@](C)(c2cccc(O)c2)[C@@H](C)C1)C(C)C
Ke [27]: 29 nM | Ke [1]: 628 nM | Ke [28]: 0.16 nM

CC(C)CNCc1ccc(-c2ccccc2S(=O)(=O)N2CCCC2)cc1 [PF-04455242]
ID50 [29]: 2 mg/kg | ID50 [30]: 8.6 mg/kg | Activity [31]: 82% | ED50 [32]: 2.3 mg/kg

C[C@H]1CN(CCCOC(=O)[C@H]2Cc3ccc(O)cc3CN2)CC[C@@]1(C)c1cccc(O)c1
Ki [8]: 25.2 nM | Ki [9]: 6.55 nM | Ki [10]: 221 nM | Kb [11]: 174 nM | Kb [12]: 93.3 nM

COc1ccc(N2CCN(CCCNC(=O)Cn3c(=O)c4cccn4c4ccccc43)CC2)cc1
IC50 [3]: > 32000 nM | IC50 [2]: > 32000 nM

CCc1ccc(S(=O)(=O)NCc2ccc(C(=O)NCCN(Cc3ccccc3)C(C)C)cc2)cc1
IC50 [3]: > 32000 nM | IC50 [13]: 1120 nM | IC50 [2]: > 32000 nM
